Columns and labels:
[1] = system: EAAC1 protein; assay: Western blot of EAAC1 protein in mouse hippocampus after intraventricular administration; type: in vivo; details: administered in cerebral ventricle, vs control (buffer)
Procedure: (§1) FIG. 4 Results obtained by examining influences of EAAC1 siRNA against the expression of an EAAC1 protein of a mouse hippocampus cell. A) After homogenizing the cell, western blot was performed using an anti-EAAC1 antibody. B) The results of the western blot were digitalized and indicated in terms of a ratio to the buffer administration. The amount of EAAC1 decreased by the introduction of EAAC1 siRNA.
(§2) FIG. 6 Results obtained by examining influences of methyl-β-cyclodextrin (MeβCD) against the expression of a GTRAP3-18 protein of mouse hippocampus. A) After homogenizing the cell, western blot was performed using an anti-EAAC1 antibody, an anti-GTRAP3-18 antibody and an anti-actin antibody. B) The results of the western blot were digitalized and indicated in terms of a ratio to actin. GTRAP3-18 increased by MeβCD.
(§3) siRNA against GTRAP3-18 was administered (10 μg/h) in a cerebral ventricle of a mouse.

[2] = system: GTRAP3-18 protein; assay: Western blot of GTRAP3-18 protein in mouse hippocampus after intraventricular administration; type: in vivo; details: administered in cerebral ventricle (siRNA 10 μg/h, after one week), vs control (buffer)
Procedure: as §1, with “3” for “4”, “GTRAP3-18” for “EAAC1”, “a GTRAP3-18” for “an EAAC1”, “anti-GTRAP3-18” for “anti-EAAC1”
as §2, §3
On the other hand, when methyl-β-cyclodextrin (MeβCD) was administered in a cerebral ventricle of a mouse, the amount of GTRAP3-18 in the hippocampus cell increased as compared with the control group (FIG. 6).

[3] = system: EAAC1; assay: Western blot of EAAC1 amount in HEK293 cell; type: cell-based; details: ratio to actin, oligonucleotide introduced or 250 μM MeβCD
Procedure: (§4) FIG. 1 Results obtained by examining influences of a GTRAP3-18 antisense oligonucleotide and methyl-β-cyclodextrin (MeβCD) against the expression of a GTRAP3-18 protein of an HEK293 cell. A GTRAP3-18 sense oligonucleotide (GTRAP3-18(S)) or an antisense oligonucleotide (GTRAP3-18(As)) was introduced into an HEK293 cell, or 250 μM of methyl-β-cyclodextrin (MeβCD) was made to act thereon. A) After homogenizing the cell, western blot was performed using an anti-EAAC1 antibody, an anti-GTRAP3-18 antibody and an anti-actin antibody. B) The results of the western blot were digitalized and indicated in terms of a ratio to actin. GTRAP3-18 decreased by the introduction of the GTRAP3-18 antisense oligonucleotide, and GTRAP3-18 increased by MeβCD.

[4] = system: GTRAP3-18 protein; assay: Western blot of GTRAP3-18 protein expression in HEK293 cell; type: cell-based; details: ratio to actin, oligonucleotide transiently introduced or 250 μM MeβCD, vs control (sense oligonucleotide)
Procedure: as §4
(§5) By transiently introducing an antisense oligonucleotide of GTRAP3-18 into an HEK293 cell, the amount of GTRAP3-18 in the cell was decreased (FIG. 1). Next, the amount of intracellular glutathione was assayed by ThioGlo-1 (manufactured by Calbiochem). […] of the amount of GTRAP3-18 was confirmed by a western blot method. A cell into which a sense oligonucleotide had been introduced was used as a control group.
On the other hand, it was confirmed by a western blot method that when methyl-β-cyclodextrin (MeβCD) was added to HEK293 cell, the amount of GTRAP3-18 increased as compared with the control group (FIG. 1).

[5] = system: intracellular glutathione (GSH); assay: Amount of intracellular glutathione in HEK293 cell assayed by ThioGlo-1; type: cell-based; details: conditions of FIG. 1, vs control group
Procedure: FIG. 2 The amount of intracellular glutathione (GSH) was quantitatively determined under the conditions of FIG. 1. Glutathione increased by the introduction of the GTRAP3-18 antisense oligonucleotide, and glutathione decreased by MeβCD.
as §5

[6] = system: glutathione in hippocampus; assay: Amount of glutathione in mouse hippocampus (GSH reductase/DTNB, absorbance at 412 nm); type: in vivo; details: administered in cerebral ventricle, corrected by tissue weight, vs control
Description: FIG. 5 Results obtained by quantitatively determining the amount of glutathione in hippocampus under the conditions of FIGS. 3 and 4. The amount of glutathione of hippocampus decreased by the intraventricular administration of EAAC1 siRNA, whereas the amount of glutathione increased by GTRAP3-18 siRNA.
FIG. 7 The amount of intracellular glutathione (GSH) was quantitatively determined under the conditions of FIG. 6. Glutathione decreased by MeβCD.
Next, after decreasing the amount of GTRAP3-18 or EAAC1 in the hippocampus cell, the amount of glutathione was assayed. That is, an extract from the hippocampus tissue was mixed with a reaction solution containing EDTA (ethylenediaminetetraacetic acid), GSH reductase, DTNB (5,5′-ditiobis-nitrobenzoic acid) and NADPH, and an absorbance at 412 nm was measured. After determining a concentration by using an absorbance of a GSH standard solution, it was corrected by a tissue weight.

[7] = listed as methyl-β-cyclodextrin (MeβCD)

## methyl-β-cyclodextrin [MeβCD]
[1]
  amount of EAAC1 in hippocampus cell: did not change
[2]
  amount of GTRAP3-18 in hippocampus cell: increased
[3]
  amount of EAAC1: did not change
[4]
  amount of GTRAP3-18 in the cell: increased
[5]
  amount of intracellular glutathione (GSH): decreased
[5]; [7]
  amount of intracellular glutathione (GSH): significantly decreased
[6]
  amount of glutathione in hippocampus: decreased
[6]; [7]
  amount of glutathione in hippocampus: significantly decreased

— patent US8551711B2, “Screening method of glutathione-increasing substance” (Teikyo University, priority 2006, dated 2013)
